Experimental data reported in article PMC4279406, “Simultaneous targeting of PI3Kδ and a PI3Kδ-dependent MEK1/2-Erk1/2 pathway for therapy in pediatric B-cell acute lymphoblastic leukemia” (Oncotarget, 2014).

Legend:
Format in all cases: cell-based, human
Rh30-Myr-p110δ cells = experiment: Akt phosphorylation in isogenic Rh30-Myr-p110 cells (Western blot); settings: panel of isogenic Rh30-Myr-p110α/β/γ/δ cells, 1 h
Text: To assess the selectivity of X-370 in the context of an isogenic cellular background, we generated a panel of Rh30 human rhabdomyosarcoma cell lines each of which stably expresses a single myristoylated (Myr)-epitope tagged p110 human class I PI3K catalytic subunit, termed as Rh30-Myr-p110α, Rh30-Myr-p110β, Rh30-Myr-p110γ or Rh30-Myr-p110δ. In these cells, endogenous PI3K is not activated under serum-free culture conditions, whereas the ectopically expressed p110 isoforms are membrane-anchored and constitutively active due to myristoylation at N-terminal. Utilizing this cell panel, isoform-specific PI3K activity can be determined for any given inhibitor[25]. These cells were treated with X-370 and phosphorylated Akt was detected as the readout of PI3K activity. X-370 inhibited phosphorylation of Akt at both Thr308 and Ser473 in a dose-dependent manner in four tested cell lines (Figure 2A). […] Similar property was also observed in CAL-101 (Figure S2).
Cell lysates were probed with indicated antibodies. The IC50 values were calculated based on relative band intensity measured with ImageQuant™ TL (GE Healthcare Life Sciences, Piscataway, NJ) (B). Data shown are mean values from three independent experiments. (C, D, E, F) X-370 blocked stimuli-triggered PI3Kδ activation. MEF cells and THP-1 were starved in serum-free medium for 12 h or 4 h respectively and X-370 were added for an additional 1 h treatment following stimulation of IGF-1 at 100 ng/ml for MEF cells (C), LPA at 10 μM for MEF cells (D), MCP-1 at 100ng/ml for THP-1 (E) and M-CSF at 50 ng/ml for THP-1 (F). Similar results were derived from 3 independent experiments. TEXT PRINTED IN THE PICTURE: (B) X-370: IC50 (μM) in Rh30-Myr-p110s, Akt pT308, PI3Kα: 0.68; IC50 (μM) in Rh30-Myr-p110s, Akt pT308, PI3Kβ: 0.4; IC50 (μM) in Rh30-Myr-p110s, Akt pT308, PI3Kγ: 0.46; IC50 (μM) in Rh30-Myr-p110s, Akt pT308, PI3Kδ: 0.032; IC50 (μM) in Rh30-Myr-p110s, Akt pS473, PI3Kα: 0.53; IC50 (μM) in Rh30-Myr-p110s, Akt pS473, PI3Kβ: 0.29; IC50 (μM) in Rh30-Myr-p110s, Akt pS473, PI3Kγ: 0.23; IC50 (μM) in Rh30-Myr-p110s, Akt pS473, PI3Kδ: 0.02 DOUBTS OF THE COPYIST ABOUT THIS PICTURE: Panel B prints no substance label in the table itself; the label X-370 is taken from the other panels of the same picture, where it is the only substance printed. […]
(§1) Cells were treated as indicated conditions and then subjected to lysate to perform standard Western blot as described previously1. Briefly, whole-cell lysates and SDS-loading buffer diluted cell fractions were analyzed on SDS-PAGE gels. Transfer to nitrocellulose membranes, nonfat milk blocking, probing with indicated primary antibodies and the corresponding HRP-conjugated second antibodies.
(§2) Chemiluminescence were performed and captured using ImageQuant LAS 4000 (GE healthcare Life Sciences, Piscataway, NJ, USA) and band intensity was measure both with ImageQuant™ TL (GE Healthcare Life Sciences) 2. […]
(§3) (also on this page, place not known: PI3Kδ -dependent MEK1/2 - B -cell previously 1. whole -cell SDS -loading SDS -PAGE HRP -conjugated (G E A B Val828 Trp760 Thr750 Met752 Tyr813 affinity pocket specificity pocket hinge Glu826 CAL-101 X-370) […]
(1 picture or pasted object on this page, not shown here) […]
in serum-free medium for 12 h and then incubated with serially diluted CAL -101 for an additional 1 h.
Cell lysates were probed with indicated antibodies. The IC50 values were calculated based on relative band intensity measured with ImageQuant™ TL (GE Healthcare Life Sciences, Piscataway, NJ). Data shown are mean values from three independent experiments.
Table S1: Inhibitory activity of X-370 against protein kinases […]
kinome at 10 μM. The relative kianse activity left in the presence of 10 μM were shown (Mi llipore […]
Kinase activity (% of control) Kinase activity (% of control) Kinase activity (% of control) […]
CDK1/cyclinB 97 Lck activated 89 Ret 125 […]

SU-DHL-6 cells = experiment: Signaling by Western blot
Method: (§4) Raji and SU-DHL-6 cells were treated with X-370 for 1 h (left panel) or treated with 0.5 μM X-370 for indicated times (middle panel). Right panel, Raji cells were incubated in fresh medium following treatment with 0.5 μM X-370 for 1 h. Indicated proteins were detected. (B) Raji-R (the rituximab-resistant derivatives of Raji cells) cells were resistant to X-370. The activity of X-370 on the proliferation of Raji parent and Raji-R cells was determined by CCK-8 assay as described in the methods section. (C) X-370 blocked phosphorylation of Akt but not Erk1/2 in Raji-R cells. Raji-R cells were treated with X-370 for 1h and indicated proteins were detected. Data shown are representative from three independent experiments.
(§5) Figure 5 Inhibition of Erk1/2 phosphorylation by X-370 contributed to its antiproliferative activity (A-C) X-370 inhibited Erk1/2 phosphorylation via PI3K-PDK1-MEK1/2 cascade but not the PI3K-Gab1 positive feedback loop. (A) Raji and SU-DHL-6 cells were exposed to 1 μM X370 for 3 h and protein fraction from cellular membrane was separated using Native Membrane Protein Extraction Kit and probed. WCL: whole cell lysate. (B) Inhibition of PDK1 or MEK1/2 abrogated Erk1/2 phosphorylation. Cells were treated with pharmacological inhibitors of Raf (AZ 628, PLX4032), MEK1/2 (AZD6244), p90RSK (BI-D1870), PI3Kδ (X-370), PDK1 (BX-912), Akt (MK-2206), mTOR (AZD8055) or mTORC1 (Rapamycin) respectively and indicated proteins were detected. (C) X-370 disrupted the association between PDK1 and MEK1/2. Raji cells were treated with 1 μM X370 for 1 h and cell lysates were immunoprecipitated with anti-PDK1 antibody and indicated proteins were detected. WCL: whole cell lysate. (D-F) Inhibition of Erk1/2 phosphorylation was required for the anti-proliferative activity of X-370. (D) Raji cells ectopically expressing a constitutively activated phospho-mimic MEK1 mutant (MEK1 S202D/S204D or MEK DD) were incubated with X-370 or AZD6244 for 1 h and then subjected to Western blot. (E) Raji and Raji MEK DD cells were treated with X-370 for 72 h and cell proliferation was detected by CCK-8 assay. (F) Raji MEK DD cells were treated with X-370 and AZD6244 and cell proliferation was detected by CCK-8 assay. Data were show as mean ± SD of three independent experiments. *: p < 0.05 determined by t-tests at each data point. […]
as §1, §2, §3
(§6) (1 picture or pasted object on this page, not shown here)

Raji cells = experiment: Signaling by Western blot
Method: as §4, §5, §1, §2, §3, §6

[1] = system: Raji cells expressing luciferase; experiment: Viability of Raji cells expressing luciferase (CCK-8); settings: 1 μM, 72 h
Method: Cell viability was assessed using Cell Counting Kit (CCK-8, Dojindo, Japan) following the manufacturer's protocol and OD values were measured with a Spectramax M5 plate reader (Molecular Devices, Sunnyvale, CA)[45].
Figure S6: CAL-101 inhibited both Akt and Erk1/2 signaling in Raji and SU-DHL -6 cells. Raji and SU-DHL-6 cells were incubated with CAL-101 for an hour and then collected to perform Western blot, the […]
luciferase. Raji cells expressing MEK DD or luciferase were incubated with 1 μM AZD6244 or DMSO control respectively for 72 h, and then cell viability were assessed by CCK-8 reagent. NS indicated no significance. Data were show as mean + SD of three independent experiments. […]

Raji MEK DD cells [2] = experiment: Proliferation of Raji MEK DD cells (CCK-8); settings: Raji MEK DD; 1 μM, 72 h, CCK-8
Method: as §5, with “(C) X-370 disrupted the association between PDK1 and MEK1/2.” left out, “WCL: whole cell lysate. (D-F) Inhibition of Erk1/2 phosphorylation was required for the anti-proliferative activity of X-370. (D) Raji cells ectopically expressing a constitutively activated phospho-mimic MEK1 mutant (MEK1 S202D/S204D or MEK DD) were incubated with X-370 or AZD6244 for 1 h and then subjected to Western blot.” left out
luciferase. Raji cells expressing MEK DD or luciferase were incubated with 1 μM AZD6244 or DMSO control respectively for 72 h, and then cell viability were assessed by CCK-8 reagent. […]

Raji MEK DD cells [3] = experiment: Erk1/2 phosphorylation in Raji cells expressing MEK DD (Western blot); settings: 1 h
Method: as §5, with “(D-F) Inhibition of Erk1/2 phosphorylation was required for the anti-proliferative activity of X-370. (D) Raji cells ectopically expressing a constitutively activated phospho-mimic MEK1 mutant (MEK1 S202D/S204D or MEK DD) were incubated with X-370 or AZD6244 for 1 h and then subjected to Western blot.” left out

Compound	selectivity against PI3Kδ-mediated signaling at cellular level (Rh30-Myr-p110δ cells)	phosphorylation of Akt and Erk1/2 (SU-DHL-6 cells; SU-DHL-6, 1 h)	phosphorylation of Akt and Erk1/2 (Raji cells; Raji, 1 h)	phosphorylated Erk1/2, panel of pathway inhibitors (SU-DHL-6 cells; SU-DHL-6 (Figure 5B))	phosphorylated Erk1/2, panel of pathway inhibitors (Raji cells; Raji (Figure 5B))	antiproliferative activity alone [1]	antiproliferative activity alone (Raji MEK DD cells [2])	Erk1/2 phosphorylation (Raji MEK DD cells [3])
CC[C@H](Nc1ncnc2[nH]cnc12)c1nc2cccc(F)c2c(=O)n1-c1ccccc1 [CAL-101, idelalisib, reference compound]	highly selective	downregulated at low nanomolar concentrations	downregulated at low nanomolar concentrations	–	–	–	–	–
Cn1cnc2c(F)c(Nc3ccc(Br)cc3Cl)c(C(=O)NOCCO)cc21 [AZD6244]	–	–	–	down-regulated	down-regulated	little antiproliferative activity	little antiproliferative activity	abolished
